Experimental findings from ChEMBL document CHEMBL2203230, “Compounds from the heartwood of Caesalpinia sappan and their anti-inflammatory activity” (Bioorg Med Chem Lett, 2012) are described below.

pIC50: −log10 of the molar value. Some results are limits rather than exact numbers.

In one test the test system is RAW264.7. Nature of the test: Antiinflammatory activity in mouse RAW264.7 cells assessed as reduction in LPS-induced iNOS expression incubated for 30 mins prior to LPS-challenge measured after 18 hrs. Format: functional, cell-based.
Settings: not given
Take `COc1cc(O)ccc1C(=O)/C=C/c1ccc(O)cc1`: the Activity result was “Dose-dependent effect”.

The next test relates to RAW264.7. Put plainly: Antiinflammatory activity in mouse RAW264.7 cells assessed as inhibition of LPS-induced NO production after 24 hrs by Griess method. Format: functional, cell-based. The settings on record: RAW264.7, 24 h. Background: Nitrite, measured by Griess reagent, commonly stands in for NO production.
As usually defined, the pIC50 is the IC50 on a negative log10 scale, so that one unit is a factor of ten. For the molecule `COc1cc(C[C@@]23COc4cc(O)ccc4[C@@H]2OC(C)(C)O3)ccc1O`, the pIC50 was less than 4.30.
As to `Oc1ccc2c(c1)OC[C@]1(O)Cc3cc(O)c(O)cc3[C@H]21` [BRAZILIN], the pIC50 was 4.36.
In the case of `COC1(OC)COc2cc(O)ccc2-c2cc(O)c(O)cc2C1` [PROTOSAPPANINADIMETHYLACETAL], the pIC50 was less than 4.30.
On the same count and under the same terms, the value for `CC1(C)O[C@H]2c3ccc(O)cc3OC[C@@]2(Cc2ccc(O)cc2)O1` was less than 4.30; that for `COc1cc(O)ccc1C(=O)/C=C/c1ccc(O)cc1` was 5.09.
On the same count and under the same terms, under `COc1cc(C[C@@]2(O)COc3cc(O)ccc3[C@@H]2OC)ccc1O` [CAESALPINIAPHENOL F] stands less than 4.30.
Still for that read-out and setting: under `Oc1ccc2c(c1)OC[C@]1(O)Cc3c(ccc(O)c3O)[C@H]21` [CAESALPINIAPHENOL E] stands less than 4.30; under `COc1cc2c(cc1O)C[C@@]1(O)COc3cc(O)ccc3[C@@H]21`, less than 4.30.
On to `O=C(c1ccc(O)cc1O)[C@@H](O)Cc1ccc(O)cc1`, for which the pIC50 was less than 4.30.
On the same count and under the same terms, under `CO[C@H]1[C@]2(O)COC3=CC(=O)C=C[C@@]31c1cc(O)c(O)cc1C2` [CAESALPINJ] stands less than 4.30; under `Oc1ccc2c(c1)OC[C@@H]1Cc3cc(O)c(O)cc3[C@H]21` [BRAZILANE], 4.44.
Still for that read-out and setting: the value for `COc1cc2c(cc1O)[C@@H]1c3ccc(O)cc3OC[C@]1(O)C2` was less than 4.30.
